# Reference: BindingDB's records for doi:10.1021/jm0504961 (Merck Frosst Centre For Therapeutic Research, 2005)
# Columns and labels:
# [1] = target: Cathepsin S (Mouse, UniProt O70370); experiment: Enzyme Inhibition Assay
# Method: (§1) Prior to the addition of substrate, different concentrations of the inhibitor ranging from 100 uM to 0.2 nM were preincubated for 15 min with enzyme to allow the establishment of the enzyme-inhibitor complex. […] The percent inhibition of the reaction was calculated from a control reaction containing only vehicle. IC50 curves were generated by fitting percent inhibition values to a four parameter logistic model (SOFTMAX PRO, Molecular Devices).
# [2] = target: T1, Cathepsin K (Oryctolagus cuniculus, UniProt P43236); experiment: Enzyme Inhibition Assay and Bone Resorption Assay; conditions: pH 5.5; 22 °C
# T1 sequence (P43236 whole entry): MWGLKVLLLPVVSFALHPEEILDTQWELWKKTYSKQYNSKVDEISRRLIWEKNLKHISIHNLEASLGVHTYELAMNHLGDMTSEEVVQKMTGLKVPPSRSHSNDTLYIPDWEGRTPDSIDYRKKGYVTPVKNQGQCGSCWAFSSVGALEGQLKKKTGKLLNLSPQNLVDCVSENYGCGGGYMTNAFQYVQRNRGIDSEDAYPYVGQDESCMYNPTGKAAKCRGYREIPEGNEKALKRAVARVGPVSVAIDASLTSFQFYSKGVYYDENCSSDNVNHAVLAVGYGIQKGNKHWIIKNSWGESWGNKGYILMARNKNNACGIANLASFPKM
# Method: as §1, with “Devices). EC50/IC50 values were obtained from functional rabbit bone resorption assay.” for “Devices).”
# [3] = target: Procathepsin L (Homo sapiens, UniProt P07711); experiment: Enzyme Inhibition Assay and Whole Cell Enzyme Occupancy Assay; conditions: pH 5.5; 22 °C
# Method: (§2) Prior to the addition of substrate, different concentrations of the inhibitor ranging from 100 uM to 0.2 nM were preincubated for 15 min with enzyme to allow the establishment of the enzyme-inhibitor complex. The proteolytic cleavage of N-acyl aminocoumarins by cathepsins was conducted in 96-well plate format and the plate read using a Spectramax (Molecular Devices) plate reader. The excitation wavelength was 355 nm and the emission wavelength was 460 nm for peptidyl-AMC substrates. The percent inhibition of the reaction was calculated from a control reaction containing only vehicle. IC50 curves were generated by fitting percent inhibition values to a four parameter logistic model (SOFTMAX PRO, Molecular Devices). EC50/IC50 values were obtained from whole cell enzyme occupancy assays for human cathepsins B (in HepG2 cells), L (in HepG2 cells), and S (in Ramos cells).
# [4] = target: Cathepsin S (Homo sapiens, UniProt P25774); experiment: as above; conditions: pH 6.5; 22 °C
# Method: as §2
# Cathepsin S (Homo sapiens, UniProt P25774), sequence (P25774 whole entry): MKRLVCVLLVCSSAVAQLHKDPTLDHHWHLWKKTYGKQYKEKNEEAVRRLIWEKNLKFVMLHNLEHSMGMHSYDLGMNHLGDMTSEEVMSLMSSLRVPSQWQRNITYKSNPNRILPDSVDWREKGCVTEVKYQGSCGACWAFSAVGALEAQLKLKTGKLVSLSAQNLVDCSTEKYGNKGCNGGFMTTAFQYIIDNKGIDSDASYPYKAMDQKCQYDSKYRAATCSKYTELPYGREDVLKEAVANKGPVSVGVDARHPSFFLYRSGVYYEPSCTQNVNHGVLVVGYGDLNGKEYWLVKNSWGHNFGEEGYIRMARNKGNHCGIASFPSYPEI
# Procathepsin L, sequence (P07711 whole entry): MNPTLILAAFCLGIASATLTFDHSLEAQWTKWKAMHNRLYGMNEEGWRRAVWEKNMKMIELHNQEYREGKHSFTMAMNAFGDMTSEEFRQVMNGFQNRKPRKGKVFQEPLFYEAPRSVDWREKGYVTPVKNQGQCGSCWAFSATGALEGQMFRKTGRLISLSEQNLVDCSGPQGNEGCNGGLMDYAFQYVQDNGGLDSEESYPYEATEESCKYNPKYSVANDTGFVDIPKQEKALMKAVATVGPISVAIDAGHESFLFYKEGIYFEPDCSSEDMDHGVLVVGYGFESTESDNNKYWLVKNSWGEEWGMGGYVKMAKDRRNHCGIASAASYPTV
# Cathepsin S (Mouse, UniProt O70370), sequence (O70370 whole entry): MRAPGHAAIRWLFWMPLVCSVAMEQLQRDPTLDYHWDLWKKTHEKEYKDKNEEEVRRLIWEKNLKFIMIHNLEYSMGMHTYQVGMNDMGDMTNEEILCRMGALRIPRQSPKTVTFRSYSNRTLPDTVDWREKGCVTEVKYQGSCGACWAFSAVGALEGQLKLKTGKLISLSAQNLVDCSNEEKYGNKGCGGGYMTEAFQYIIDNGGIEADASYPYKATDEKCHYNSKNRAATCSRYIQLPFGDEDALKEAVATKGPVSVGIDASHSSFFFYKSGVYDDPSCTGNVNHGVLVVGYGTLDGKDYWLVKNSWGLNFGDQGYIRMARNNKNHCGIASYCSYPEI
SMILES,EC50 [1] [nM],EC50 [2] [nM],EC50 [3] [nM],EC50 [4] [nM]
"CN1CCN(c2nc(-c3ccc(C(=O)NC4(C(=O)NCC(F)(F)F)CCCCC4)cc3)cs2)CC1 [4-[2-(4-methylpiperazin-1-yl)-1,3-thiazol-4-yl]-N-{1-[(2,2,2-trifluoroethyl)carbamoyl]cyclohexyl}benzamide]",> 10000,–,–,–
CCCN1CCN(c2ccc(C(=O)NC3(C(=O)NCC#N)CCCCC3)cc2)CC1 [N-[1-(cyanomethylcarbamoyl)cyclohexyl]-4-(4-propylpiperazin-1-yl)],480,–,48,2900
CC(C)C[C@@H](C(=O)NCC#N)c1cccc(-c2ccc(N3CCNCC3)cc2)c1 [(2R)-N-(cyanomethyl)-4-methyl-2-{3-[4-(piperazin-1-yl)phenyl]phenyl}pentanamide],740,149,320,1340
N#CCNC(=O)[C@H](CC1CCCCC1)NC(=O)c1ccccc1 [(2S)-N-(cyanomethyl)-3-cyclohexyl-2-(phenylformamido)propanamide],40,–,230,10

# Other lines, results leading:
EC50 [1] [nM],EC50 [2] [nM],EC50 [3] [nM],EC50 [4] [nM],SMILES
6700,41,> 10000,> 10000,"N#CCNC(=O)C1(NC(=O)c2ccc(-c3csc(N4CCOCC4)n3)cc2)CCCCC1 [N-{1-[(cyanomethyl)carbamoyl]cyclohexyl}-4-[2-(morpholin-4-yl)-1,3-thiazol-4-yl]benzamide]"
8500,580,> 10000,4800,N#CCNC(=O)C1(NC(=O)c2ccc(N3CCOCC3)cc2)CCCCC1 [N-{1-[(cyanomethyl)carbamoyl]cyclohexyl}-4-(morpholin-4-yl)benzamide]
318,5,340,790,"CN1CCN(c2nc(-c3ccc(C(=O)NC4(C(=O)NCC#N)CCCCC4)cc3)cs2)CC1 [N-{1-[(cyanomethyl)carbamoyl]cyclohexyl}-4-[2-(4-methylpiperazin-1-yl)-1,3-thiazol-4-yl]benzamide]"
